Test results from US20140163023A1, “DIHYDROPYRROLO PYRIMIDINE DERIVATIVES AS MTOR INHIBITORS” (Cellzome Limited, priority 2011, published 2014).

Legend:
[1] = target: T1, DNA-dependent protein kinase (DNA-PK) (Homo sapiens, UniProt P78527); assay: kinobeads assay, DNA-PK; assay type: binding; details: 1:1 mix of Jurkat and Ramos cell lysates, read-out: Inhibition values (IC50 in μM) as determined in the kinobeads assay, DNA-PK
T1 construct: endogenous in cells; host or cells: Jurkat (ATCC TIB-152, clone E6-1) and Ramos (ATCC CRL-1596), 1:1 lysate mix
Procedure: (§1) The compounds of the present invention as described were tested in the mTOR kinobeads assay as described below. Briefly, test compounds (at various concentrations) and the affinity matrix (1:1 mixture of beads with immobilized phenylthiazole ligand 1 and beads with immobilized phenylmorpholin-chromen ligand; WO 2009/098021) were added to cell lysate aliquots and allowed to bind to the proteins in the lysate sample. After the incubation time the beads with captured proteins were separated from the lysate. Bound proteins were then eluted and the presence of mTOR, PI3Kα, PI3Kβ, PI3Kγ, PI3Kδ and DNA-dependent protein kinase (DNA-PK) was detected and quantified using a specific antibody in a dot blot procedure and the Odyssey infrared detection system. Dose response curves for individual kinases were generated and IC50 values calculated. Kinobeads assays for PI3 kinases (WO-A 2008/015013) and for kinase selectivity profiling (WO 2009/098021) have been previously described.
(§2) Washing of Affinity Matrix
(§3) The affinity matrix was washed two times with 15 ml of 1×DP buffer containing 0.2% NP40 (IGEPAL® CA-630, Sigma, #13021) and then resupended in 5.5 ml of 1×DP buffer containing 0.2% NP40 (10% beads slurry).
(§4) 5×DP buffer: 250 mM Tris-HCl pH 7.4, 25% Glycerol, 7.5 mM MgCl2, 750 mM NaCl, 5 mM Na3VO4, filter the 5×-lysis buffer through 0.22 μm filter and store in aliquots at −80° C. The 5×DP buffer is diluted to 1×DP buffer containing 1 mM DTT and 25 mM NaF.
(§5) Preparation of Test Compounds
(§6) Stock solutions of test compounds were prepared in DMSO. In a 96 well plate 30 μl solution of diluted test compounds at 5 mM in DMSO were prepared. Starting with this solution a 1:3 dilution series (9 steps) was prepared. For control experiments (no test compound) a buffer containing 2% DMSO was used. Compound Pi-103 (Calbiochem catalogue number 528100) served as a positive control.
(§7) Cell Culture and Preparation of Cell Lysates
(§8) Jurkat cells (ATCC catalogue number TIB-152 Jurkat, clone E6-1) and Ramos cells (ATCC number CRL-1596) were grown in 1 litre Spinner flasks (Integra Biosciences, #182101) in suspension in RPMI 1640 medium (Invitrogen, #21875-034) supplemented with 10% Fetal Bovine Serum (Invitrogen) at a density between 0.15×10^6 and 1.2×10^6 cells/ml. Cells were harvested by centrifugation, washed once with 1×PBS buffer (Invitrogen, #14190-094) and cell pellets were frozen in liquid nitrogen and subsequently stored at −80° C.
(§9) Cells were homogenized in a Potter S homogenizer in lysis buffer: 50 mM Tris-HCl, 0.8% NP40, 5% glycerol, 150 mM NaCl, 1.5 mM MgCl2, 25 mM NaF, 1 mM sodium vanadate, 1 mM DTT, pH 7.5. One complete EDTA-free tablet (protease inhibitor cocktail, Roche Diagnostics, 1873580) per 25 ml buffer was added. The material was dounced 10 times using a mechanized POTTER S, transferred to 50 ml falcon tubes, incubated for 30 minutes on ice and spun down for 10 min at 20,000 g at 4° C. (10,000 rpm in Sorvall SLA600, precooled). The supernatant was transferred to an ultracentrifuge (UZ)-polycarbonate tube (Beckmann, 355654) and spun for 1 hour at 100.000 g at 4° C. (33.500 rpm in Ti50.2, precooled). The supernatant was transferred again to a fresh 50 ml falcon tube, the protein concentration was determined by a Bradford assay (BioRad) and samples containing 50 mg of protein per aliquot were prepared. The samples were immediately used for experiments or frozen in liquid nitrogen and stored frozen at −80° C.
(§10) Cell lysate (approximately 50 mg protein per plate) was thawed in a water bath at room temperature and then kept on ice. To the thawed cell lysate 1×DP 0.8% NP40 buffer containing protease inhibitors (1 tablet for 25 ml buffer; EDTA-free protease inhibitor cocktail; Roche Diagnostics 1873580) was added in order to reach a final protein concentration of 5 mg/ml total protein. For the kinobeads experiment a 1:1 mix of Jurkat and Ramos cell lysates was used. The diluted cell lysate was stored on ice. […]

mTOR = target: T2, mTOR (Homo sapiens, UniProt P42345); assay: mTOR kinobeads assay (competition binding in cell lysate, dot blot detection); details: 1:1 mix of Jurkat and Ramos cell lysates, read-out: Inhibition values (IC50 in μM) as determined in the kinobeads assay, mTor
T2 construct: endogenous in cells; host or cells: Jurkat (ATCC TIB-152, clone E6-1) and Ramos (ATCC CRL-1596), 1:1 lysate mix
Procedure: Determination of the Effect of the Compounds According to the Invention on mTOR
as §1, §2, §3, §4, §5, §6, §7, §8, §9
as §10, with “used.” for “used. The diluted cell lysate was stored on ice.”

PI3Kβ = target: T3, PI3Kβ (Homo sapiens, UniProt P42338); assay: kinobeads assay, PI3Kβ; assay type: binding; details: 1:1 mix of Jurkat and Ramos cell lysates, read-out: Inhibition values (IC50 in μM) as determined in the kinobeads assay, PI3Kβ
T3 construct: endogenous in cells; host or cells: Jurkat (ATCC TIB-152, clone E6-1) and Ramos (ATCC CRL-1596), 1:1 lysate mix
Procedure: as §1, §2, §3, §4, §5, §6, §7, §8, §9, §10

PI3Kδ = target: T4, PI3Kδ (Homo sapiens, UniProt O00329); assay: kinobeads assay, PI3Kδ; assay type: binding; details: 1:1 mix of Jurkat and Ramos cell lysates, read-out: Inhibition values (IC50 in μM) as determined in the kinobeads assay, PI3Kδ
T4 construct: endogenous in cells; host or cells: Jurkat (ATCC TIB-152, clone E6-1) and Ramos (ATCC CRL-1596), 1:1 lysate mix
Procedure: as §1, §2, §3, §4, §5, §6, §7, §8, §9, §10

PI3Kα = target: T5, PI3Kα (Homo sapiens, UniProt P42336); assay: kinobeads assay, PI3Kα; assay type: binding; details: 1:1 mix of Jurkat and Ramos cell lysates, read-out: Inhibition values (IC50 in μM) as determined in the kinobeads assay, PI3Kα
T5 construct: endogenous in cells; host or cells: Jurkat (ATCC TIB-152, clone E6-1) and Ramos (ATCC CRL-1596), 1:1 lysate mix
Procedure: as §1, §2, §3, §4, §5, §6, §7, §8, §9, §10

PI3Kγ = target: T6, PI3Kγ (Homo sapiens, UniProt P48736); assay: kinobeads assay, PI3Kγ; assay type: binding; details: 1:1 mix of Jurkat and Ramos cell lysates, read-out: Inhibition values (IC50 in μM) as determined in the kinobeads assay, PI3Kγ
T6 construct: endogenous in cells; host or cells: Jurkat (ATCC TIB-152, clone E6-1) and Ramos (ATCC CRL-1596), 1:1 lysate mix
Procedure: as §1, §2, §3, §4, §5, §6, §7, §8, §9, §10

T6 sequence (P48736 whole entry): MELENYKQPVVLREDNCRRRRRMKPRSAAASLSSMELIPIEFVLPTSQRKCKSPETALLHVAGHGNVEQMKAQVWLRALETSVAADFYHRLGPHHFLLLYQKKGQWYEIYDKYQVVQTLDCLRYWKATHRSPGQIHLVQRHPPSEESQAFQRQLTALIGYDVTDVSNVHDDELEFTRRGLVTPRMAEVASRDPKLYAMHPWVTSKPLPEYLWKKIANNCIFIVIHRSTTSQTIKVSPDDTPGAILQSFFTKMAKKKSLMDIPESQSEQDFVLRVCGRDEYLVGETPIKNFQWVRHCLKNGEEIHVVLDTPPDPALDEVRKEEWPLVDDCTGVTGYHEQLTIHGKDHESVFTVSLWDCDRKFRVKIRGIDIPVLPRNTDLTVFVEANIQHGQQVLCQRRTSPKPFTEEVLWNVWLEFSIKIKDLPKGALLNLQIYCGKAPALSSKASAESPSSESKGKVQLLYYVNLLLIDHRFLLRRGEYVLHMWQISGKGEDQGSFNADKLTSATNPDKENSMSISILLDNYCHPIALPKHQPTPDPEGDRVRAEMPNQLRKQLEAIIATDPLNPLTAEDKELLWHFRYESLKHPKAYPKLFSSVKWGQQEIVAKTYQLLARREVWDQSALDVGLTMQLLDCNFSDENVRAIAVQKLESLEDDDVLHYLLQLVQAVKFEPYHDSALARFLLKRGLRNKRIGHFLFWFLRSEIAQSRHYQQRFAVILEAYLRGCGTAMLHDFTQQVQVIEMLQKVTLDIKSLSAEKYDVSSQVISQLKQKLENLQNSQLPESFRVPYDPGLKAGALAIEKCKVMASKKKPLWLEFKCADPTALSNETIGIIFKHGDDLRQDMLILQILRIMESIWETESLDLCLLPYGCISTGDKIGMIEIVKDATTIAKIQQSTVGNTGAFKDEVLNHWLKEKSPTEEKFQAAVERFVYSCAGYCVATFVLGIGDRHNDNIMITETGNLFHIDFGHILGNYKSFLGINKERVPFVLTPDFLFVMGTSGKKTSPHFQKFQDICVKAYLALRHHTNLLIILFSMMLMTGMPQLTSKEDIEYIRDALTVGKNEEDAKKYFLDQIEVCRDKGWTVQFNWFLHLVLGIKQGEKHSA
T3 sequence (P42338 whole entry): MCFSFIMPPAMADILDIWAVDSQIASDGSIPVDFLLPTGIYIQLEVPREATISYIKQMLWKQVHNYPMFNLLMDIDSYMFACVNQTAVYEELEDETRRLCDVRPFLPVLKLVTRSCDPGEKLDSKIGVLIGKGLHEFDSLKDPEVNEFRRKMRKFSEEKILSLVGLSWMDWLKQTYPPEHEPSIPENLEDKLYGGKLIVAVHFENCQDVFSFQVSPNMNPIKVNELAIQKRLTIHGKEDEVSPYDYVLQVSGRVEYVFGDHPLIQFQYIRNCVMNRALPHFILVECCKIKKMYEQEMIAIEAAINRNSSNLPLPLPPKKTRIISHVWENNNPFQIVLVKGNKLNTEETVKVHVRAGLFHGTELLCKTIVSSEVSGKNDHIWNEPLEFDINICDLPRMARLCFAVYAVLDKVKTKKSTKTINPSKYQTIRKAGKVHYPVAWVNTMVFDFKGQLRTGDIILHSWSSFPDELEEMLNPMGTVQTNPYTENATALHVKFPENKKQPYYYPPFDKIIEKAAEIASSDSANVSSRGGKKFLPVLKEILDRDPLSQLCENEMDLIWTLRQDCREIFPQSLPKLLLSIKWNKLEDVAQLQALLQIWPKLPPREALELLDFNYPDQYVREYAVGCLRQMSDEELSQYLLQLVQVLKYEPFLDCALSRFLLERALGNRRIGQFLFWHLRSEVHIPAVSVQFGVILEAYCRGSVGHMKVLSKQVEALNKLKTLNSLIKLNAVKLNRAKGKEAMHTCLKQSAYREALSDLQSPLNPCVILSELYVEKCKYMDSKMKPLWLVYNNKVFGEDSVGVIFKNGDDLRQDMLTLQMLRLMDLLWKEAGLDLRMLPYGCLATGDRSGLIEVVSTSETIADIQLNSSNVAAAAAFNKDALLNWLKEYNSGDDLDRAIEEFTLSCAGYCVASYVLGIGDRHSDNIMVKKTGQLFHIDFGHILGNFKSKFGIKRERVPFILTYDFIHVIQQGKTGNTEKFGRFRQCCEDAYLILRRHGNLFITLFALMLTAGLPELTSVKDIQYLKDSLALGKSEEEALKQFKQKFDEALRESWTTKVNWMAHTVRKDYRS
T3 sequence (P27986 whole entry partner): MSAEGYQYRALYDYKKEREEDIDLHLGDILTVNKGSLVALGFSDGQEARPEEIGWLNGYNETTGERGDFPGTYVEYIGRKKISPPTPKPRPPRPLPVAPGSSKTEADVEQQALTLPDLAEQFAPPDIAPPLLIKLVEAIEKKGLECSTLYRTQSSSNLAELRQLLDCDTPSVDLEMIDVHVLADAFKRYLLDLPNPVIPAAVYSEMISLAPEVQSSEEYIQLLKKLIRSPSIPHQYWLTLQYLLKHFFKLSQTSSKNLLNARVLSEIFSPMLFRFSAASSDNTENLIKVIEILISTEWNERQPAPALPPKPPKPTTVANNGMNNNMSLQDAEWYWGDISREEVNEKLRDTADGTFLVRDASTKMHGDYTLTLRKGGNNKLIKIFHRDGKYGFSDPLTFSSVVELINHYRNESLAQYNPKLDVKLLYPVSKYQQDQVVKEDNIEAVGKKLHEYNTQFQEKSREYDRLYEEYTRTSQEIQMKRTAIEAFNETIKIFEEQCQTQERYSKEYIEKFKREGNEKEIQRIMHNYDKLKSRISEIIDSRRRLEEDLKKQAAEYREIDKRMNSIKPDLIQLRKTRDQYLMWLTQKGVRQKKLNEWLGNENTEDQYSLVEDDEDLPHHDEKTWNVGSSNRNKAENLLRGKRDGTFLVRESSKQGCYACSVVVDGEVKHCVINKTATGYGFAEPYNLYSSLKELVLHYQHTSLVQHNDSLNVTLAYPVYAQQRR
T5 sequence (P42336 whole entry): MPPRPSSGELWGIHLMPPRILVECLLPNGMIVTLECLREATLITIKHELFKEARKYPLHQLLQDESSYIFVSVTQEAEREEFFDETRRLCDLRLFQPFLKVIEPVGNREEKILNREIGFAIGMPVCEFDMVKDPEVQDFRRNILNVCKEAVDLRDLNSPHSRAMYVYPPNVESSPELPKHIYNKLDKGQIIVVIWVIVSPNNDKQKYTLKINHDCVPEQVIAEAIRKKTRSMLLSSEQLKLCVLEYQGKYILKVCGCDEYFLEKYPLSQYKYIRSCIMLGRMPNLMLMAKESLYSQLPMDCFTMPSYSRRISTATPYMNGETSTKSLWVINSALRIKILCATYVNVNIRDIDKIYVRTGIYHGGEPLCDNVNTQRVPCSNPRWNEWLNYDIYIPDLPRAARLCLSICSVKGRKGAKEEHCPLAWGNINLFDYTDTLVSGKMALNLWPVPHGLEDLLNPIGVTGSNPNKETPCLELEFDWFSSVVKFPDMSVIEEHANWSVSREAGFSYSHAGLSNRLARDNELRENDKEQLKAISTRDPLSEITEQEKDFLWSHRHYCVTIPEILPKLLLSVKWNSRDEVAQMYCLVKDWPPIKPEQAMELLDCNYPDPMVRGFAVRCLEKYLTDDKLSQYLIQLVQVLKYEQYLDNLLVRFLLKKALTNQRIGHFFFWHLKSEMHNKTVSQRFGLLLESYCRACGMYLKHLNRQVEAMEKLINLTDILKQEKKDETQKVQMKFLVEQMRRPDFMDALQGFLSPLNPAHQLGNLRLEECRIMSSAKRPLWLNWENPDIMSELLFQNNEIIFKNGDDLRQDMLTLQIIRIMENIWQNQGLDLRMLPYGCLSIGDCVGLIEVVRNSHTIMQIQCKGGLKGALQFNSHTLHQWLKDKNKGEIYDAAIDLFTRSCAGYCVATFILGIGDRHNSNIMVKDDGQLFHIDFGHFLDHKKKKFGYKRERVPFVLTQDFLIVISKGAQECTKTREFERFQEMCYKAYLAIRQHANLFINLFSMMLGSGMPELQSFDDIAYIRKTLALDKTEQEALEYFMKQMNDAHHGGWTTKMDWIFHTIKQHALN
T5 sequence (P27986 whole entry partner): as the sequence (P27986 whole entry partner) above
T4 sequence (O00329 whole entry): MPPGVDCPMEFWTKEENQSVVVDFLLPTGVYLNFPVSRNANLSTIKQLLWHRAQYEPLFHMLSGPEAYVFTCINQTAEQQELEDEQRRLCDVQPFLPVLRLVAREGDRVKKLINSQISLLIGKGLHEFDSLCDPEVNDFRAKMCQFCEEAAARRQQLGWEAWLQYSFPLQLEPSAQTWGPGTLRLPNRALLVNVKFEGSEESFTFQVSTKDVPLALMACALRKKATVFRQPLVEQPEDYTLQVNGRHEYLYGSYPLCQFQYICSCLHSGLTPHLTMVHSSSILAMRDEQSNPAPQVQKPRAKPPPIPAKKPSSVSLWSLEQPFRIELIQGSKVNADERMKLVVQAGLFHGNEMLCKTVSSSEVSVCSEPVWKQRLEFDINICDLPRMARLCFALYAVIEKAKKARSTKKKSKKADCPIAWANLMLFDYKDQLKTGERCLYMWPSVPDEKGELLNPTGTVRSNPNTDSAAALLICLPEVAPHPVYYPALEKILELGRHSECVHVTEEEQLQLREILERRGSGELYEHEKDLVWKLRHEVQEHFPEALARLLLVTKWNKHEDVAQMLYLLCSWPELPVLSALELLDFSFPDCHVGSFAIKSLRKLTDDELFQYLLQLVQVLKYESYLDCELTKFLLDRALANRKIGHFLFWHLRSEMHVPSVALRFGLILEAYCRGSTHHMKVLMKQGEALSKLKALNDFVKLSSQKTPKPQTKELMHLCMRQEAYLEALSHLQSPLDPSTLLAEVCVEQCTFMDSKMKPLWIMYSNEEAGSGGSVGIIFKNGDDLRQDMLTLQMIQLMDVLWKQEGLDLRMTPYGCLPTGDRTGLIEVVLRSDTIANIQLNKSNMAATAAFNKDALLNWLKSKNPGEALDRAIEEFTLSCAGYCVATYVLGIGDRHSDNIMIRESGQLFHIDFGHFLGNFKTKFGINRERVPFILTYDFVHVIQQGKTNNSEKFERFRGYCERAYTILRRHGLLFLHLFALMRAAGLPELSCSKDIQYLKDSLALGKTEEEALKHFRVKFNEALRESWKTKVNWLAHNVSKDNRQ
T4 sequence (P27986 whole entry partner): as the sequence (P27986 whole entry partner) above

SMILES	IC50 [1]	IC50 (mTOR)	IC50 (PI3Kβ)	IC50 (PI3Kδ)	IC50 (PI3Kα)	IC50 (PI3Kγ)
C[C@H]1COCCN1c1nc2c(c(-c3ccc(NC(=O)NC4CC4)cc3)n1)CN(C(=O)CN)C2 [Example 28, (S)-1-(4-(6-(2-aminoacetyl)-2-(3-methylmorpholino)-6,7-dihydro-5H-pyrrolo[3,4-d]pyrimidin-4-yl)phenyl)-3-cyclopropylurea]	> 100 µM	1 to 10 µM	10 to 100 µM	10 to 100 µM	10 to 100 µM	10 to 100 µM
C[C@H]1COCCN1c1nc2c(c(-c3ccc(NC(=O)NC4CC4)cc3)n1)CN(C(=O)CCN)C2 [Example 29, (S)-1-(4-(6-(3-aminopropanoyl)-2-(3-methylmorpholino)-6,7-dihydro-5H-pyrrolo[3,4-d]pyrimidin-4-yl)phenyl)-3-cyclopropylurea]	> 100 µM	1 to 10 µM	10 to 100 µM	10 to 100 µM	10 to 100 µM	10 to 100 µM
C[C@H]1COCCN1c1nc2c(c(-c3ccc(NC(=O)NC4CC4)cc3)n1)CN(C(=O)CCCN)C2 [Example 30, (S)-1-(4-(6-(4-aminobutanoyl)-2-(3-methylmorpholino)-6,7-dihydro-5H-pyrrolo[3,4-d]pyrimidin-4-yl)phenyl)-3-cyclopropylurea]	> 100 µM	1 to 10 µM	10 to 100 µM	10 to 100 µM	10 to 100 µM	> 100 µM
COCCC(=O)N1Cc2nc(N3CCOC[C@@H]3C)nc(-c3ccc(NC(=O)NC4CC4)cc3)c2C1 [Example 31, (S)-1-cyclopropyl-3-(4-(6-(3-methoxypropanoyl)-2-(3-methylmorpholino)-6,7-dihydro-5H-pyrrolo[3,4-d]pyrimidin-4-yl)phenyl)urea]	> 100 µM	0.1 to 1 µM	10 to 100 µM	10 to 100 µM	> 100 µM	> 100 µM
C[C@H]1COCCN1c1nc2c(c(-c3ccc(NC(=O)NC4CC4)cc3)n1)CN(C(=O)CCCN(C)C)C2 [Example 32, (S)-1-cyclopropyl-3-(4-(6-(4-(dimethylamino)butanoyl)-2-(3-methylmorpholino)-6,7-dihydro-5H-pyrrolo[3,4-d]pyrimidin-4-yl)phenyl)urea]	10 to 100 µM	1 to 10 µM	1 to 10 µM	10 to 100 µM	> 100 µM	10 to 100 µM
C[C@H]1COCCN1c1nc2c(c(-c3ccc(NC(=O)NC4CC4)cc3)n1)CN(C(=O)C1CCCO1)C2 (stereo partly drawn) [Example 33, 1-cyclopropyl-3-(4-(2-((S)-3-methylmorpholino)-6-(tetrahydrofuran-2-carbonyl)-6,7-dihydro-5H-pyrrolo[3,4-d]pyrimidin-4-yl)phenyl)urea]	> 100 µM	1 to 10 µM	10 to 100 µM	10 to 100 µM	> 100 µM	> 100 µM
